Measurements from patent US9738628B2, “Substituted 1H-indazol-1-OL analogs as inhibitors of beta catenin/Tcf protein-protein interactions” (University of Utah Research Foundation, priority 2012, dated 2017).

Legend:
[1] = tested on: HCT116 colon cancer cell line; test: MTS-based cell proliferation inhibition assay; set-up: species or system human; details: dose-dependent (FIG. 2)
[2] = molecular target: β-catenin/Tcf4 (Homo sapiens (Human), UniProt P35222); test: Fluorescence polarization (FP) competitive inhibition assay, β-catenin/Tcf4; assay type: binding; details: Table 2, mean ± SD (n=3)
Chain of β-catenin/Tcf4 (P35222 138-686): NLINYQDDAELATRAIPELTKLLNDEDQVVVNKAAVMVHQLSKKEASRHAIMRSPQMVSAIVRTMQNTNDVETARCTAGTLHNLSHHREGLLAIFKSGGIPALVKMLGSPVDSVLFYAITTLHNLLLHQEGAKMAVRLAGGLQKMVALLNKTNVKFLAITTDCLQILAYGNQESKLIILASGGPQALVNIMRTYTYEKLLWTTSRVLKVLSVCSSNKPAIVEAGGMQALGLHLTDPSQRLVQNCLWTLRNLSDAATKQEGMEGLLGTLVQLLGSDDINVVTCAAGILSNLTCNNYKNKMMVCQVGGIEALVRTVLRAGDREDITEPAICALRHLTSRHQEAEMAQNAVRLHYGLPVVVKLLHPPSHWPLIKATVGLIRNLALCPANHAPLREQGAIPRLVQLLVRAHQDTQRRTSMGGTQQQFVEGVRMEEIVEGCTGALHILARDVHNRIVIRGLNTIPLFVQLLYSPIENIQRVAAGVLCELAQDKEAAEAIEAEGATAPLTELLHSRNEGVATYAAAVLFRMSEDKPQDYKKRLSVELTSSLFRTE
Protocol: Experiments were performed in 96-well Microfluor 2 black plates (Waltham, Mass.), and the samples were read by a Synergy 2 plate reader (Biotek, Winooski, Vt.). […] The final reaction volume is 100 μL.

Substance	inhibition of growth of colon cancer cell HCT116 [1]	Ki [2]
3-(2-(1-hydroxy-1H-indazol-5-yl)ethyl)-1,2,4-oxadiazole-5(4H)-thione [Compound 14]	inhibit the proliferation	
3-((1-hydroxy-1H-indazol-5-yl)methyl)-1,2,4-oxadiazol-5(4H)-one [Compound 10]		125 ± 1.3 µM
5-(2-(2H-tetrazol-5-yl)ethyl)-1H-indazol-1-ol [Compound 12]	inhibit the proliferation	
